Patent publication US20150284360A1, “AMIDE DERIVATIVES OF ANILINE-RELATED COMPOUNDS AND COMPOSITIONS THEREOF” (C&C BIOPHARMA, LLC, priority 2014, published 2015)
Converted amounts (≈) assume the structure as drawn.

Legend:
[1] = Solubility of a compound in water; type: physicochemical; conditions: compound added until saturated
Protocol: Solubility of a compound was obtained by adding the compound into water of known volume (e.g. 1 mL) until saturated, measuring the amount of the compound added, and obtaining the solubility of the compound in water (mg/mL) (Table 9).

[2] = In vitro conversion of prodrug Lys-CC30.2HCl to parent drug CC30 in rat plasma (HPLC-MS); type: in vitro ADME; conditions: formed from Lys-CC30•2HCl in rat plasma
Protocol: Lys-CC30.2HCl (2.53 mg) was dissolved in 200 μl of water to obtain an aqueous solution concentration of 12.6 mg/ml. 4 μl of the Lys-CC30.2HCl solution was thoroughly mixed with 100 μl of rat plasma. This mixture was divided into 10 aliquots (10 μl) placed in 1.5 ml tubes. One tube was placed on ice and was used as the 0 time point. The other 9 samples were placed in an incubator at 37° C. At 5, 10, 30, 60, 120, and 240 minutes, a tube was taken out from incubation and placed on ice to stop or slow down the reaction. The samples were diluted with water (50-fold), mixed, and pelleted by centrifugation at 4° C. and 14,000 rpm for 5 min. The supernatant (˜200-300 μl) was used for HPLC-MS analysis. The % conversion was calculated by dividing the peak area of the parent drug by the peak area of the prodrug at time 0, and then multiplying by 100 (Table 10).
After 60 minutes of incubation, almost half (44.7%) of the Lys-CC30.2HCl prodrug converted to CC30 (Table 10).

[3] = Cyclization in simulated gastric fluid (SGF), acidic condition; type: physicochemical; conditions: SGF pH=1.3 with pepsin, 37° C., 4 hours
Protocol: Simulated gastric fluid (SGF) was prepared by thoroughly mixing diluted hydrochloric acid (16.4 ml), water (800 ml), and 10 g of pepsin together, and then bring the volume up to 1000 ml with water (pH=1.3). Diluted hydrochloric acid was prepared by mixing 234 ml of concentrated hydrochloric acid with water to a final volume of 1000 ml. Lys-CC30.2HCl (2.53 mg) or CC30 were separately dissolved in 200 μl of water to obtain an aqueous solution concentration of 12.6 mg/ml. 4 μl of the Lys-CC30.2HCl solution and the CC30 solution were thoroughly mixed with 1 ml of SGF in separate tubes. The mixtures were placed in an incubator at 37° C. for 4 hours. The samples were diluted with water 50-fold, mixed, and pelleted by centrifugation at 4° C. and 14,000 rpm for 5 min. The supernatants (˜200-300 μl) were used for HPLC-MS analysis.

[4] = In vivo conversion of prodrug Lys-CC30.2HCl to parent drug CC30 in a rat after intravenous administration (plasma, HPLC-MS); set-up: species or system Sprague-Dawley rat; conditions: for HPLC-MS Peak Area of Parent drug, CC30 in the rat: rat plasma after Lys-CC30.2HCl 2 mg/kg intravenous
Protocol: A Male Sprague-Dawley rat weighing 200-220 g was used to study the pharmacokinetics of the prodrug Lys-CC30.2HCl. Food was prohibited for 12 hours before the experiment, but water was freely available. Blood samples (0.2 ml) were collected through orbital venous plexus blood into heparinized 1.5 ml polyethene tubes at 0, 2, 5, 10, 15, 20, 30, 45 and 60 minute time points after the intravenous administration of Lys-CC30.2HCl (2 mg/kg). The samples were immediately centrifuged at 3000 g for 10 minutes. The plasma obtained (100 μl) was stored at −20° C. until analyzed. Plasma Lys-CC30.2HCl and parent drug CC30 concentrations in the collected blood samples were analyzed by HPLC-MS.
The parent drug was detected in the rat for at least 60 minutes, whereas the prodrug was no longer detected after 20 minutes (Table 11)(FIG. 10B).

SMILES	Solubility in Water [1]	further results
Cl.Cl.N=C(N)NCCC[C@H](N)C(=O)Nc1ccccc1NC(=O)CCCCCC(=O)Nc1cccc(Br)c1 [Arg-CC30•HCl]	100 mg/mL	
Cl.NC(=O)C[C@H](N)C(=O)Nc1ccccc1NC(=O)CCCCCC(=O)Nc1cccc(Br)c1 [Asn-CC30•HCl]	30 mg/mL	
N[C@@H](CCC(=O)[O-])C(=O)Nc1ccccc1NC(=O)CCCCCC(=O)Nc1cccc(Br)c1.[Na+] [CC30-Glu•Na]	>100 mg/mL	
O=C([O-])CCC(=O)Nc1ccccc1NC(=O)CCCCCC(=O)Nc1cccc(Br)c1.[Na+] [CC30-Suc-ONa]	2 mg/mL	
Nc1ccccc1NC(=O)CCCCCC(=O)Nc1cccc(Br)c1 [CC30]	0.006 mg/mL (≈ 14.8 µM)	HPLC-MS Peak Area of Parent Drug, CC30 ([2]; 37° C., 5 min): 880074; HPLC-MS Peak Area of Parent Drug, CC30 ([2]; 37° C., 10 min): 1131442; HPLC-MS Peak Area of Parent Drug, CC30 ([2]; 37° C., 30 min): 2039869; HPLC-MS Peak Area of Parent Drug, CC30 ([2]; 37° C., 60 min): 2762843; HPLC-MS Peak Area of Parent Drug, CC30 ([2]; 37° C., 120 min): 4280514; HPLC-MS Peak Area of Parent Drug, CC30 ([2]; 37° C., 240 min): 4438887; HPLC-MS Peak Area of Parent Drug, CC30 ([2]; time 0 min (on ice)): 617276; Fraction that formed an inactive cyclized product [3]: 5%; Time for which the parent drug was detected in the rat ([4]; after Lys-CC30.2HCl 2 mg/kg intravenous): at least 60 minutes; HPLC-MS Peak Area of Parent drug, CC30 in the rat ([4]; 0 min): 4792335; HPLC-MS Peak Area of Parent drug, CC30 in the rat ([4]; 2 min): 2994581; HPLC-MS Peak Area of Parent drug, CC30 in the rat ([4]; 5 min): 2162228; HPLC-MS Peak Area of Parent drug, CC30 in the rat ([4]; 10 min): 1225981; HPLC-MS Peak Area of Parent drug, CC30 in the rat ([4]; 15 min): 712348; HPLC-MS Peak Area of Parent drug, CC30 in the rat ([4]; 20 min): 425079; HPLC-MS Peak Area of Parent drug, CC30 in the rat ([4]; 30 min): 232663; HPLC-MS Peak Area of Parent drug, CC30 in the rat ([4]; 45 min): 199152; HPLC-MS Peak Area of Parent drug, CC30 in the rat ([4]; 60 min): 44686
Cl.NCC(=O)Nc1ccccc1NC(=O)CCCCCC(=O)Nc1cccc(Br)c1 [Gly-CC30•HCl]	10 mg/mL	
Cl.NCC(=O)Nc1ccccc1NC(=O)c1ccc(CNc2nccc(-c3cccnc3)n2)cc1 [Gly-MGCD0103•HCl]	>100 mg/mL	
Cl.NCC(=O)Nc1ccccc1NC(=O)c1ccc(CNC(=O)OCc2cccnc2)cc1 [Gly-MS-275•HCl]	68 mg/mL	
Cl.NCC(=O)Nc1ccccc1NC(=O)CCCCCC(=O)Nc1ccccc1 [Gly-PAOA•HCl]	11 mg/mL	
Cl.Cl.N[C@@H](Cc1c[nH]cn1)C(=O)Nc1ccccc1NC(=O)CCCCCC(=O)Nc1cccc(Br)c1 [His-CC30•2HCl]	130 mg/mL	
CC(C)C[C@H](N)C(=O)Nc1ccccc1NC(=O)CCCCCC(=O)Nc1cccc(Br)c1.Cl [Leu-CC30•HCl]	50 mg/mL	
Cl.Cl.NCCCCC(N)C(=O)Nc1ccccc1NC(=O)c1ccc(CNc2nccc(-c3cccnc3)n2)cc1 (centres unmarked) [Lys-MGCD0103•2HCl]	>100 mg/mL	
Cl.Cl.NCCCC[C@H](N)C(=O)Nc1ccccc1NC(=O)c1ccc(CNC(=O)OCc2cccnc2)cc1 [Lys-MS-275•2HCl]	>100 mg/mL	
Cl.Cl.NCCCC[C@H](N)C(=O)Nc1ccccc1NC(=O)CCCCCC(=O)Nc1ccccc1 [Lys-PAOA•2HCl]	>100 mg/mL	
Nc1ccccc1NC(=O)c1ccc(CNc2nccc(-c3cccnc3)n2)cc1 [MGCD0103, Mocetinostat, reference compound]	<1 mg/mL	
Nc1ccccc1NC(=O)c1ccc(CNC(=O)OCc2cccnc2)cc1 [MS-275, Entinostat, reference compound]	0.016 mg/mL (≈ 42.5 µM)	
Cl.Cl.NCCC[C@H](N)C(=O)Nc1ccccc1NC(=O)CCCCCC(=O)Nc1cccc(Br)c1 [Orn-CC30•HCl]	720 mg/mL	
Nc1ccccc1NC(=O)CCCCCC(=O)Nc1ccccc1 [PAOA, reference compound]	.033 mg/mL (≈ 101 µM)	
Cl.N[C@@H](Cc1ccccc1)C(=O)Nc1ccccc1NC(=O)CCCCCC(=O)Nc1cccc(Br)c1 [Phe-CC30•HCl]	10 mg/mL	
Cl.N[C@@H](CO)C(=O)Nc1ccccc1NC(=O)CCCCCC(=O)Nc1cccc(Br)c1 [Ser-CC30•HCl]	10 mg/mL	
Cl.NC(CO)C(=O)Nc1ccccc1NC(=O)c1ccc(CNc2nccc(-c3cccnc3)n2)cc1 (centres unmarked) [Ser-MGCD0103•HCl]	>100 mg/mL	
Cl.NC(CO)C(=O)Nc1ccccc1NC(=O)c1ccc(CNC(=O)OCc2cccnc2)cc1 (centres unmarked) [Ser-MS-275•HCl]	>100 mg/mL	
C[C@@H](O)[C@H](N)C(=O)Nc1ccccc1NC(=O)CCCCCC(=O)Nc1cccc(Br)c1.Cl [Thr-CC30•HCl]	1350 mg/mL	
C[C@@H](O)[C@H](N)C(=O)Nc1ccccc1NC(=O)c1ccc(CNc2nccc(-c3cccnc3)n2)cc1.Cl [Thr-MGCD0103•HCl]	>100 mg/mL	
CC(O)C(N)C(=O)Nc1ccccc1NC(=O)c1ccc(CNC(=O)OCc2cccnc2)cc1.Cl (centres unmarked) [Thr-MS-275•HCl]	>100 mg/mL	
CC(C)[C@H](N)C(=O)Nc1ccccc1NC(=O)CCCCCC(=O)Nc1cccc(Br)c1.Cl [Val-CC30•HCl]	170 mg/mL	
CC(C)C(N)C(=O)Nc1ccccc1NC(=O)c1ccc(CNc2nccc(-c3cccnc3)n2)cc1.Cl (centres unmarked) [Val-MGCD0103•HCl]	>100 mg/mL	
CC(C)[C@H](N)C(=O)Nc1ccccc1NC(=O)c1ccc(CNC(=O)OCc2cccnc2)cc1.Cl [Val-MS-275•HCl]	>100 mg/mL	
CC(C)[C@H](N)C(=O)Nc1ccccc1NC(=O)CCCCCC(=O)Nc1ccccc1.Cl [Val-PAOA•HCl]	>100 mg/mL	
